# Assay: recombinant UMI read abundance after kanamycin selection (control-corrected) (log10(CPM+1)); higher = more efficient recombination; extreme values may be limits of the assay; sequences stand for … in AGTGCAGAGAAAATCGGCCAGTTTTCTCTGCCTGCAGTCCGCATGCCGTGGGACCCCTTGGGTTCTAACCTGTTGCCTAGATTTATGCAGCGGACTGCCTTTCTCCCAAAGTGATAAACCGG…AGGTTGGTTTCACT; site = the 11-nt donor
# In short: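 Under IPTG (0.07 mM) plus kanamycin, or without selection, Escherichia coli carrying a UMI-tagged donor and donor-binding-loop pair library and a target plasmid for the IS621 bridge recombinase were plated in two replicates. Recombinant UMIs were PCR-amplified across the donor–target junction and sequenced. Counts were converted to CPM, averaged over replicates, scaled by control-derived factors and reported as log10(CPM+1).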
# 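Further: IS621 bridge recombinase in Escherichia coli cells against a fixed T5 target plasmid.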
row,Sequence,recombinant UMI read abundance (log10)
1,TAAAGTCCATGGACCGGTTTTCCCGGTAATCCGTATTTGTA (site TAAAGACCTTA),0.00959
2,TAAAGTCCATGGACCGGTTTTCCCGGTAATCCGTATTTGTA (site TAAAGCCCTTA),0.452
3,TAAAGTCCATGGACCGGTTTTCCCGGTAATCCGTATTTGTA (site TAAAGGCCTTA),0.00572
4,TAAAGTCCATGGACCGGTTTTCCCGGTAATCCGTATTTGTA (site TAAAGTACTTA),0.459
5,TAAAGTCCATGGACCGGTTTTCCCGGTAATCCGTATTTGTA (site TAAAGTCCTAA),0.0143
6,TAAAGTCCATGGACCGGTTTTCCCGGTAATCCGTATTTGTA (site TAAAGTCCTCA),0.00255
7,TAAAGTCCATGGACCGGTTTTCCCGGTAATCCGTATTTGTA (site TAAAGTCCTGA),0
8,TAAAGTCCATGGACCGGTTTTCCCGGTAATCCGTATTTGTA (site TAAAGTCCTTA),0.722
9,TAAAGTCCATGGACCGGTTTTCCCGGTAATCCGTATTTGTA (site TAAAGTCCTTC),0.00609
10,TAAAGTCCATGGACCGGTTTTCCCGGTAATCCGTATTTGTA (site TAAAGTCCTTG),0.00546
11,TAAAGTCCATGGACCGGTTTTCCCGGTAATCCGTATTTGTA (site TAAAGTCCTTT),0.0573
12,TAAAGTCCATGGACCGGTTTTCCCGGTAATCCGTATTTGTA (site TAAAGTGCTTA),0.00484
13,TAAAGTCCATGGACCGGTTTTCCCGGTAATCCGTATTTGTA (site TAAAGTTCTTA),0.0051
14,TAAAGTCCATGGACCGGTTTTCCCGGTAATCCGTATTTGTA (site TAAATTCCTTA),0.812
15,TAAAGTCCATGGACCGGTTTTCCCGGTAATCCGTATTTGTA (site TAACGTCCTTA),0.243
16,TAAAGTCCATGGACCGGTTTTCCCGGTAATCCGTATTTGTA (site TAAGGTCCTTA),0.198
17,TAAAGTCCATGGACCGGTTTTCCCGGTAATCCGTATTTGTA (site TAATGTCCTTA),0.0108
18,TAAAGTCCATGGACCGGTTTTCCCGGTAATCCGTATTTGTA (site TACAGTCCTTA),0
19,TAAAGTCCATGGACCGGTTTTCCCGGTAATCCGTATTTGTA (site TAGAGTCCTTA),0.358

row,Sequence,recombinant UMI read abundance (log10)
1,TAAAGTCCATGGACCGGTTTTCCCGGTAATCCGTATTTGTA (site TATAGTCCTTA),0.0492
2,TAAAGTCCATGGACCGGTTTTCCCGGTAATCCGTATTTGTA (site TCAAGTCCTTA),0.0268
3,TAAAGTCCATGGACCGGTTTTCCCGGTAATCCGTATTTGTA (site TGAAGTCCTTA),0.00382
4,TAAAGTCCATGGACCGGTTTTCCCGGTAATCCGTATTTGTA (site TTAAGTCCTTA),0.671
5,TAAAGTGCATGGACCGGTTTTCCCGGTAATCCGTATTTGTA (site TAAAGTACTTA),1.36
6,TAAAGTGCATGGACCGGTTTTCCCGGTAATCCGTATTTGTA (site TAAAGTCCTTA),0.72
7,TAAAGTGCATGGACCGGTTTTCCCGGTAATCCGTATTTGTA (site TAAAGTGCTTA),2.22
8,TAAAGTGCATGGACCGGTTTTCCCGGTAATCCGTATTTGTA (site TAAAGTTCTTA),0
9,TAAATGACATGGACCGGTTTTCCCGGTAATCCGTATTTGGA (site TAAATGACTTC),1.23
10,TAAATTCCATGGACCGGTTTTCCCGGTAATCCGTATTTGGG (site TAAATTCCTCC),0
11,TAAATTCCATGGACCGGTTTTCCCGGTAATCCGTATTTGTA (site TAAAATCCTTA),0.00321
12,TAAATTCCATGGACCGGTTTTCCCGGTAATCCGTATTTGTA (site TAAACTCCTTA),0.00609
13,TAAATTCCATGGACCGGTTTTCCCGGTAATCCGTATTTGTA (site TAAAGTCCTTA),0.471
14,TAAATTCCATGGACCGGTTTTCCCGGTAATCCGTATTTGTA (site TAAATTCCTTA),0.558
15,TAACAGGCATGGACCGGTTTTCCCGGTAATCCGTATTTGTT (site TAACAGGCTAA),1.1
16,TAACCACCATGGACCGGTTTTCCCGGTAATCCGTATTTGAT (site TAACCACCTAT),0.0138
17,TAACCCGCATGGACCGGTTTTCCCGGTAATCCGTATTTGTG (site TAACCCGCTCA),0.00831
18,TAACGTCCATGGACCGGTTTTCCCGGTAATCCGTATTTGTA (site TAAAGTCCTTA),0.571
19,TAACGTCCATGGACCGGTTTTCCCGGTAATCCGTATTTGTA (site TAACGTCCTTA),0.935
